Publication PMC3400037, “Application of a single-objective, hybrid genetic algorithm approach to pharmacokinetic model building” (Journal of Pharmacokinetics and Pharmacodynamics, 2012)
Where two headings read alike, the source gives them in different places. Blank lines part the entries; values can stand above or below the compound they belong to.

Tests used:
[1] = final stepwise model, oral, cited from earlier work; for Volume of distribution (L)—TVV / Clearance (L/h)—TVCL: one compartment with absorption; for Volume of distribution (L)—TVV: (relative standard error; perphenazine: 95 % CI from bootstrapping); for Absorption rate constant (1/h)—TVKA: fixed based on literature, not estimated
[2] = human, in vivo
Text: (§1) Individuals who received oral olanzapine [14], perphaenazine [15], risperidone [16], or ziprasidone [17] were patients treated between January 2001 and December 2004 as part of the Clinical Antipsychotic Trials of Intervention Effectiveness (CATIE)—a multisite, US study of randomized, double-blind, medication comparative-effectiveness trial—in the treatment of Alzheimer’s (CATIE-AD) and schizophrenia (CATIE-SZ). […] Individuals who received intravenous citalopram were part of a cross sectional study of healthy volunteers participating in Pittsburgh’s Adult and Human Behavior Project; these individuals were between the ages of 30 and 55 years and not taking medications for hypertension, lipid disorders, or diabetes [22]. Individuals who received intravenous DMAG were cancer patients either at Pittsburgh’s Cancer Institute or at Memorial Sloan-Kettering participating in a phase II study.
(§2) The SOHGA operates on a set of candidate models in which each candidate specifies covariates included the in model, their functional forms, the structure of the inter-individual and residual variability, and the initial pharmacokinetic model parameter estimates [3]. Special-use software in which the SOHGA, coded and run in Microsoft Visual Studio and Compaq Digital Fortran, creates NONMEM control files to fit parameters and calculate the fitness of candidate models using NONMEM VI, Level 1.0 or NONMEM VII, version 7.2 using either first-order (risperidone only) or first-order conditional estimation with interaction using Xpose [23].
(§3) The SOHGA retained a population of 200–400 candidate models for 30–50 generations. A total of 0.7 crossover events were expected per set of parents. Candidate models for crossover were randomly selected based on scaled fitness function values; linear regression was performed using all fitness functions within two standard deviations of the mean, the fitness of the regression values were scaled to between 0.2 and 4, and outlying values were assigned one of these extreme values. This scaling of the fitness function improves convergence by not permitting outliers to dominate the selection process. The mutation rate was 0.01 mutations per bit. The candidate model with best fitness function was retained to the next generation, a technique known as elitism. Niche evaluation (where a niches differ by <4 bits) was performed. In niche evaluation, a penalty is applied to models that are similar to other models (differ by 4 or fewer bits). This prevents early convergence, maintaining diversity in the population. Four niches were used, insuring that at least four regions of the search space were explored in each phase of the search. A simple downhill search was performed every five generations. In the downhill search, each bit of the best model in each niche in reversed (0 to 1, 1 to 0) and the resulting models run. For example, if the bit string if of length 40, the downhill search will generate 40 new models for each niche that each differ by a single bit. If any of the resulting models are better than the current best model for that niche, the process is repeated with that model, until no further improvement is seen. Finally, timeout conditions were set where NONMEM timed out (terminated without completion failing convergence) after up to 600 min for a model and a generation timed out after up to 6,000 min although the exact timeout conditions varied by compound.

clinical = conditions: human, in vivo, iv
Text: as §1, §2, §3

[3] = Population pharmacokinetic model of clinical plasma concentration data, manual stepwise forward inclusion/backward elimination (NONMEM); format: in vivo, human; conditions: final stepwise model, IV
Procedure: Manual stepwise model results were taken from the literature or were generated from unpublished data (DMAG) or data reported elsewhere in the literature. These models were determined using similar methods. Briefly, for each compound, a covariate free model was used to select the model compartment structure with the combination of inter-individual and residual variability structures resulting in the lowest objective function value calculated by NONMEM (twice the negative log likelihood plus a fixed constant offset) and a reasonable distribution of residuals as the base model.
Univariate evaluations of covariates were then performed. […] The covariate and its function form that (1) yielded the lowest objective function conditional on (2) improved the objective function value by at least 3.84 (citalopram, DMAG, and [14, 15, 17, 21]) or 7.88 [16] points compared to the base model (which corresponds to Chi-squared values of p = 0.05 and p = 0.005 with one degree of freedom, respectively) and (3) in which there appeared to be a graphical relationship between the deviation in an individual predicted value and the covariate value across individual predicted values was included in the model. The remaining covariates were then included individually in the updated model, the inclusion criteria evaluated, and the model sequentially updated with additional covariates until no further covariates met the model inclusion criteria.
Finally, individual covariates were removed from the final model and the change in the objective function was calculated. Covariates were excluded from the final model if, when the covariate was removed, the objective function value increased by less than 3.84 (citalopram, DMAG, [14, 15, 21]), 6.63 [17] (a Chi-squared value of p = 0.01 with one degree of freedom), or 7.88 [16]. Although the models were derived using different versions of NONMEM, the final models reported in the literature were re-run in NONMEM VI, Level 1.0 using Fortran G77 and NONMEM VII, version 7.2 with Intel Fortran to confirm that the results were independent of the NONMEM version.
All continuous covariates were centered at zero.

[4] = Population pharmacokinetic model of clinical plasma concentration data, single-objective hybrid genetic algorithm (SOHGA) coupled to NONMEM; conditions: best SOHGA candidate model
Text: as §1, §2, §3

[5] = CYP2C19 genotype, (relative standard error)
[6] = 3 component mixture for clearance, FO, (relative standard error)
[7] = 3 component mixture for clearance
[8] = oral, one compartment with absorption, (relative standard error)
[9] = IV, three compartment, (relative standard error)
[10] = three compartment, (relative standard error)

- Absorption rate constant (1/h)—TVKA ([2]; po): 0.594 (23.1 %) 1/h
- Clearance (L/h)—TVCL ([2]; po): 25.5 (5.3 %) L/h
- Inter-individual variability—ωV of ηV ([2]; po): 59.4 % (32.6 %)
- Volume of distribution (L)—TVV ([2]; po): 874 (11.8 %) L
SMILES: CN(C)CCC[C@@]1(c2ccc(F)cc2)OCc2cc(C#N)ccc21 [Escitalopram, escitalopram]
- Clearance (L/h)—TVCL, Missing metabolizer information ([1]; (relative standard error)): 21.5 (7.80 %) L/h
- Clearance (L/h)—TVCL, Extensive metabolizer [1, 5]: 26 (7.20 %) L/h
- Clearance (L/h)—TVCL, Poor metabolizer [1, 5]: 19.8 (8.50 %) L/h
- Inter-individual variability—ωV of ηV [1]: 62.0 % (40.3 %)
- Volume of distribution (L)—TVV [1]: 947 (10.2 %) L

SMILES: Cc1nc2n(c(=O)c1CCN1CCC(c3noc4cc(F)ccc34)CC1)CCCC2 [Risperidone, risperidone]
- Clearance (L/h)—TVCL, Extensive metabolizer [1, 6]: 65.4 (9.9 %) L/h
- Clearance (L/h)—TVCL, Poor metabolizer [1, 6]: 12.9 (6.5 %) L/h
- Inter-individual variability—ωCL of ηCL, Extensive metabolizer [1, 7]: 56.6 % (16.8 %)
- Inter-individual variability—ωCL of ηCL, Poor metabolizer [1, 7]: 95.9 % (39.5 %)
- Percent of subjects who were extensive metabolizers [1, 7]: 52.4 % (6.2 %)
- Percent of subjects who were poor metabolizers [1, 7]: 41.2 % (8.1 %)
- Inter-individual variability—ωKA of ηKA [1]: 53.7 % (89.3 %)
- Inter-individual variability—ωV of ηV [1]: 36.1 % (24.4 %)
- Absorption rate constant (1/h)—TVKA [1]: Fixed at 1.7 1/h
- Volume of distribution (L)—TVV [1]: 444 (17.8 %) L
- Absorption rate constant (1/h)—TVKA ([2]; po): 0.184.(21.1 %) 1/h
- Central volume—TVV1 ([2]; po): 96.6 (31.2 %)
- Clearance (L/h)—TVCL, Extensive metabolizer ([2]; po): 122 (11.5 %) L/h
- Clearance (L/h)—TVCL, Intermediate metabolizer ([2]; po): 34.9 (8.9 %) L/h
- Clearance (L/h)—TVCL, Poor metabolizer ([2]; po): 12.4 (8.5 %) L/h
- Inter-comp clearance—TVQ ([2]; po): 27.1 (29.9 %)
- Inter-individual variability—η^(V1) ([2]; po): 478 % (46.4 %)
- Inter-individual variability—ωCL of ηCL ([2]; po): 7.3 % (32.2 %)
- Percent of subjects who were extensive metabolizers ([2]; po): 41.4 % (8.6 %)
- Percent of subjects who were poor metabolizers ([2]; po): 22.4 % (4.4 %)
- Peripheral volume—TVV2 ([2]; po): 1.31x10^10 (1,000 %)

SMILES: Cc1cc2c(s1)Nc1ccccc1N=C2N1CCN(C)CC1 [Olanzapine, olanzapine]
- Inter-individual variability—ωCL of ηCL [1]: 68%
- Inter-individual variability—ωV of ηV [1]: 86%
- Absorption rate constant (1/h)—TVKA [1]: Fixed at 0.5 1/h
- Clearance (L/h)—TVCL ([1]; (relative standard error)): 16.1 (7.3 %) L/h
- Volume of distribution (L)—TVV [1]: 2,150 (26.0 %) L
- Absorption rate constant (1/h)—TVKA ([2]; po): 0.773 (70.4 %) 1/h
- Clearance (L/h)—TVCL ([2]; po): 21.1 (15.5 %) L/h
- Inter-individual variability—ωCL of ηCL ([2]; po): 64.7 % (17.2 %)
- Volume of distribution (L)—TVV ([2]; po): 4,130 (48.9 %) L

- clearance (clinical): 20.3 mL/min
- Inter-individual variability—ωQ of ηQ ([3]; standard deviation ω): 48.5 % (NA)
- Inter-individual variability—ωV1 of ηV1 ([3]; standard deviation ω): 12.2 % (NA)
- Inter-individual variability—ωV2 of ηV2 ([3]; standard deviation ω): 22.6 % (NA)
- Central volume (L)—TVV1 ([3]; two compartment): 2.87 (NA) L
- Peripheral volume (L)—TVV2 ([3]; two compartment): 1,510 (NA) L
- clearance ([3]; human, plasma, 0.33 mg/kg lean body mass, typical value (relative standard error), read-out: Clearance (L/h)—TVCL (converted)): 7.11 L/h
- Central volume (L)—TVV1 ([2]; iv): 82.1 (17.7 %) L
- Inter-comp clearance (L/h)—TVQ ([2]; iv): 6.26 (19.0 %) L/h
- Inter-individual variability—ωQ of ηQ ([2]; iv): 35.5 % (19.0 %)
- Inter-individual variability—ωV1 of ηV1 ([2]; iv): 46.2 % (15.5 %)
- Inter-individual variability—ωV2 of ηV2 ([2]; iv): 25.4 % (12.5 %)
- Peripheral volume (L)—TVV2 ([2]; iv): 205 (12.6 %) L
SMILES: CN(C)CCCC1(c2ccc(F)cc2)OCc2cc(C#N)ccc21 (stereo not shown) [Citalopram, citalopram]

- Clearance (L/h)—TVCL [4, 8]: 126 (9.0 %) L/h
- Volume of distribution (L)—TVV [4, 8]: 1,030 (12.4 %) L
- Absorption rate constant (1/h)—TVKA ([2]; po): 0.424 (5.8 %) 1/h
- Inter-individual variability—ωCL of ηCL ([2]; po): 69.0 % (21.4 %)
- Inter-individual variability—ωV of ηV ([2]; po): 114 % (16.0 %)
SMILES: O=C1Cc2cc(CCN3CCN(c4nsc5ccccc45)CC3)c(Cl)cc2N1 [Ziprasidone, ziprasidone]
- Inter-individual variability—ωCL of ηCL [1]: 64.8 % (25 %)
- Inter-individual variability—ωV of ηV [1]: 104.4 % (27 %)
- Absorption rate constant (1/h)—TVKA [1]: Fixed at 0.5 1/h
- Clearance (L/h)—TVCL ([1]; (relative standard error)): 122 (9 %) L/h
- Volume of distribution (L)—TVV [1]: 1,060 (19 %) L

- Absorption rate constant (1/h)—TVKA ([2]; po): 0.859 (80.7 %) 1/h
- Clearance (L/h)—TVCL ([2]; po): 354 (12.3 %) L/h
- Inter-individual variability—ωCL of ηCL ([2]; po): 78.8 % (11.4 %)
- Volume of distribution (L)—TVV ([2]; po): 1.10x10^7 (172 %) L
SMILES: OCCN1CCN(CCCN2c3ccccc3Sc3ccc(Cl)cc32)CC1 [Perphenazine, perphenazine]
- Clearance (L/h)—TVCL ([1]; (relative standard error)): 483 L/h
- Volume of distribution (L)—TVV [1]: 18,200 (13,865 - 65,795) L

- Inter-individual variability—ωV1 of ηV1 ([4]; IV): 39.7 % (24.5 %)
- Inter-individual variability—ωV2 of ηV2 ([4]; IV): 42.3 % (24.8 %)
- Inter-occasion variability—ωCL of ηOCC,CL ([4]; IV): 8.3 % (38.6 %)
- Inter-occasion variability—ωQ1 of ηOCC,Q1 ([4]; IV): 14.0 % (32.7 %)
- Inter-patient variability—ωCL of ηCL ([4]; IV): 22.1 % (29.1 %)
- First compartment volume (L)—TVV1 [4, 9]: 28.1 (12.9 %) L
- Second compartment volume (L)—TVV2 [4, 9]: 77.9 (11.4 %) L
- Third compartment volume (L)—TVV3 [4, 9]: 86.4 (8.5 %) L
- Clearance (L/h)—TVCL ([4]; IV, typical value (relative standard error)): 9.28 (7.9 %) L/h
- Inter-occasion variability (first compartment volume) [3]: 59.7 % (31.2 %)
- Inter-occasion variability—ωQ1 of ηOCC,Q1 [3]: 32.6 % (37.2 %)
- Inter-patient variability—ωQ2 of ηQ2 [3]: 75.8 % (32.0 %)
- Inter-patient variability—ωV3 of ηV3 [3]: 67.5 % (37.3 %)
- Inter-individual variability—ωV1 of ηV1 ([3]; standard deviation ω): 33.0 % (111.9 %)
- Inter-individual variability—ωV2 of ηV2 ([3]; standard deviation ω): 50.7 % (23.7 %)
- Inter-patient variability—ωCL of ηCL ([3]; standard deviation ω): 53.8 % (22.9 %)
- First compartment volume (L)—TVV1 [3, 10]: 27.4 (11.7 %) L
- Second compartment volume (L)—TVV2 [3, 10]: 66.4 (10.1 %) L
- Third compartment volume (L)—TVV3 [3, 10]: 142 (13.5 %) L
- Clearance (L/h)—TVCL ([3]; typical value (relative standard error)): 8.4 (11.2 %) L/h
SMILES: CO[C@H]1/C=C\C=C(/C)C(=O)NC2=CC(=O)C(NCCN(C)C)=C(C[C@@H](C)C[C@H](OC)[C@H](O)[C@@H](C)/C=C(\C)[C@@H]1OC(N)=O)C2=O [DMAG, 17-(dimethylaminoethylamio)-17-demethoxygeldanamycin]
